Measured values: publication PMC7422722, “The complete functional characterisation of the terpene synthase family in tomato” (The New Phytologist, 2020)

What was measured:
Format in all cases: biochemical
TPS52 = molecular target: T1, TPS52 (Solanum lycopersicum, UniProt A0A6H0JLZ2); experiment: in vitro assay, GC-MS of products
T1 construct: recombinant, E. coli (codon-optimised gene made), His-tagged, purified; full length 551 residues; gene on chromosome 7
T1 sequence (A0A6H0JLZ2 1-551): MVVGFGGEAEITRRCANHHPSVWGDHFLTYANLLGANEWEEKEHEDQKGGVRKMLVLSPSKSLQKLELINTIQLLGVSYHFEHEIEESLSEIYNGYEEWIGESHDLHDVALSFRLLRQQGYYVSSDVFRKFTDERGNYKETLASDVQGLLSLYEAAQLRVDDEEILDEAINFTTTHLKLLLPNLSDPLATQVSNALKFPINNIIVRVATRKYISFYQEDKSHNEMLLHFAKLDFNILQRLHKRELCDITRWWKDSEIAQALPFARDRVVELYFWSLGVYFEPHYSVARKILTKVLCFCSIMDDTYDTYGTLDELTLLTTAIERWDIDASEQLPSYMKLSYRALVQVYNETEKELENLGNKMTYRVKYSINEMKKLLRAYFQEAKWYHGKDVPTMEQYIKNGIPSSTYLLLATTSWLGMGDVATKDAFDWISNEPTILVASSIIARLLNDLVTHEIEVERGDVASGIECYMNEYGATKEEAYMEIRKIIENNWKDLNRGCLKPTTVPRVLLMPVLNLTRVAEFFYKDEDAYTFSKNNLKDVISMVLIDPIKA

TPS27 = molecular target: T2, TPS27 (Solanum lycopersicum, UniProt G5CV48); experiment: in vitro assay, GC-MS of products; conditions: product alpha-farnesene
T2 construct: recombinant, E. coli pET32b or pET28a, His-tagged, purified
T2 sequence (G5CV48 1-554): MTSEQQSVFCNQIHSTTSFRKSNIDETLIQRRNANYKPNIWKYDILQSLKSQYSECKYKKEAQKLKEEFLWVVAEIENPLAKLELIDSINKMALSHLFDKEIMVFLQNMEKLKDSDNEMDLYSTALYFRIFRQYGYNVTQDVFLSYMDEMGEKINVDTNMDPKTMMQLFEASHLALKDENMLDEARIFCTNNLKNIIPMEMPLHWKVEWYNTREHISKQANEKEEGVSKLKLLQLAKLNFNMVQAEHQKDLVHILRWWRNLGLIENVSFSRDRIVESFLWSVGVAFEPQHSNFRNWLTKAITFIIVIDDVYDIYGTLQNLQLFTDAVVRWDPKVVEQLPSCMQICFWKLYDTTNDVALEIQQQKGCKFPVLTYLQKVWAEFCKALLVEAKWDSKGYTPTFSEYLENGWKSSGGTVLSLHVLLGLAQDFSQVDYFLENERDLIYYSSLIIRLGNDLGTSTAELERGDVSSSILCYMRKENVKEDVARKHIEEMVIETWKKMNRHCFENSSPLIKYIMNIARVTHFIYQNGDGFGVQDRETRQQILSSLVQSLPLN

TPS51 = molecular target: T3, TPS51 (Solanum lycopersicum, UniProt A0A6H0JLJ2); experiment: in vitro assay, GC-MS of products
T3 construct: recombinant, E. coli (codon-optimised gene made), His-tagged, purified; full length 550 residues; gene on chromosome 7
T3 sequence (A0A6H0JLJ2 1-550): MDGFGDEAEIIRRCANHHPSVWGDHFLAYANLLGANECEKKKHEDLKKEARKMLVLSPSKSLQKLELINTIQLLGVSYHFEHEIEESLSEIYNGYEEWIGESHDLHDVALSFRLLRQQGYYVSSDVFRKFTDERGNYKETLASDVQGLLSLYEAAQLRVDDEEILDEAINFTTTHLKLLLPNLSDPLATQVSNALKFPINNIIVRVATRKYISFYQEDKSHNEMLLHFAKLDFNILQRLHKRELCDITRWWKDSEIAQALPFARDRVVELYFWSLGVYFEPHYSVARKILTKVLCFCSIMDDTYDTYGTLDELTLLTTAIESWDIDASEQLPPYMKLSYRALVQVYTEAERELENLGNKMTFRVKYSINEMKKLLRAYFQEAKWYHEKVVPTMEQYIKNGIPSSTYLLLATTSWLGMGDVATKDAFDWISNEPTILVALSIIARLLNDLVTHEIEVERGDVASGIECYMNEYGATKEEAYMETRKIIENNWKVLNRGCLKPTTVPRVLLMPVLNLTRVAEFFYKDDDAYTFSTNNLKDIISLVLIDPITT

GGPPS2 = molecular target: T4, GGPPS2 (Solanum lycopersicum, UniProt Q1A7S9); experiment: in vitro prenyltransferase assay, products hydrolysed, GC-MS; conditions: co-substrate IPP; without SSU
T4 construct: gene GGPS2

GGPPS1 = molecular target: T5, GGPPS1 (Solanum lycopersicum, UniProt Q1A7T0); experiment: as above; conditions: co-substrate IPP; without SSU
T5 construct: gene GGPS1

TPS47 = molecular target: T6, TPS47 (Solanum lycopersicum, UniProt K4BEJ5); experiment: in vitro assay, headspace SPME GC-MS; conditions: product isoprene; 42 °C headspace collection
T6 construct: gene LOC101258440; recombinant, E. coli (codon-optimised gene made), His-tagged, purified; full length 562 residues; gene on chromosome 3
T6 sequence (K4BEJ5 1-562): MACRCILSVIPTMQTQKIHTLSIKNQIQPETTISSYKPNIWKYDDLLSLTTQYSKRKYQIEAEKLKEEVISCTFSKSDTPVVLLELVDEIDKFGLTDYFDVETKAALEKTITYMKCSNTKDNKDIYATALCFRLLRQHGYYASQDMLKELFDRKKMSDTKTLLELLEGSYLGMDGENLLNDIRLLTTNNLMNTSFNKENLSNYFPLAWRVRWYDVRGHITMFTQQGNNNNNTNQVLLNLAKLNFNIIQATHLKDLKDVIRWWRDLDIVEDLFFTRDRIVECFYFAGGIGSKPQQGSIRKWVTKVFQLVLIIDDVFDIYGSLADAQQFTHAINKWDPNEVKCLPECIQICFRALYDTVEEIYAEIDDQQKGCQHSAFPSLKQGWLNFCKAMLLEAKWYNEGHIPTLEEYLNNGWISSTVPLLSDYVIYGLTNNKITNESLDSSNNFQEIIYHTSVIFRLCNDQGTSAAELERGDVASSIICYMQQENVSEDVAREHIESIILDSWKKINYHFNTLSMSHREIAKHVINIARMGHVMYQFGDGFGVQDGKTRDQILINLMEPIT

TPS33 = molecular target: T7, TPS33 (Solanum lycopersicum, UniProt G5CV44); experiment: in vitro assay, GC-MS of products; conditions: several sesquiterpene products
T7 construct: recombinant, E. coli pET32b or pET28a, His-tagged, purified
T7 sequence (G5CV44 1-552): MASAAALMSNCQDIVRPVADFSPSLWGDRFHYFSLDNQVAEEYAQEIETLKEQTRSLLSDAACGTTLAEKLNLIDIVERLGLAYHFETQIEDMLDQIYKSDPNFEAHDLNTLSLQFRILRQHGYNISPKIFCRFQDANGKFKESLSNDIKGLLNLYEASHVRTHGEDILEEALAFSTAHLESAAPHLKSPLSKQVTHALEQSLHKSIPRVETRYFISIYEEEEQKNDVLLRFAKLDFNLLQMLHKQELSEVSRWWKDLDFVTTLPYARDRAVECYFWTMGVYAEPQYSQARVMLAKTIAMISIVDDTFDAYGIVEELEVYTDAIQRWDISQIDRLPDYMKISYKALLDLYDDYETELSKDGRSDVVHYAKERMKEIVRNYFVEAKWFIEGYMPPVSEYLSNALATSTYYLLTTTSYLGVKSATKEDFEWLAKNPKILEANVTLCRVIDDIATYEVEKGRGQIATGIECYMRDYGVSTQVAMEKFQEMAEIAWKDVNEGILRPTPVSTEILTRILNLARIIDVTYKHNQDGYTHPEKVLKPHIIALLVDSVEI

TPS28 = molecular target: T8, TPS28 (Solanum lycopersicum, UniProt G5CV47); experiment: in vitro assay, GC-MS of products; conditions: product unidentified sesquiterpene
T8 construct: recombinant, E. coli pET32b or pET28a, His-tagged, purified
T8 sequence (G5CV47 1-554): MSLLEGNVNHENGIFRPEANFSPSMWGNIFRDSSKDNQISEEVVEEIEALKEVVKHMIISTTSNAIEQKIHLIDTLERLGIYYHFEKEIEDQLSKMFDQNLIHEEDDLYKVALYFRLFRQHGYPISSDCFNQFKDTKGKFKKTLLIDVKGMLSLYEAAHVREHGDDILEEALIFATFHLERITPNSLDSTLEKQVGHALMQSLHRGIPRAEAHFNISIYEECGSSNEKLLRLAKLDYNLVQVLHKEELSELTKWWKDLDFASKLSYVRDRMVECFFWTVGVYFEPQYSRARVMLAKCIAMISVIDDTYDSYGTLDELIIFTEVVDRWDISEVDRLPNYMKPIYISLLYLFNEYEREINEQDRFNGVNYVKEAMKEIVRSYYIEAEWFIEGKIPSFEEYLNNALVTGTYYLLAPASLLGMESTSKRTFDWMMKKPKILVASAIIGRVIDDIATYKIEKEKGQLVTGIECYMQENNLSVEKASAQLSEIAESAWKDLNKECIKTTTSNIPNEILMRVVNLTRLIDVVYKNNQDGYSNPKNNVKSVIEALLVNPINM

TPS36 = molecular target: T9, TPS36 (Solanum lycopersicum, UniProt G5CV42); experiment: in vitro assay, GC-MS of products; conditions: product mostly cis-muurola-3,5-diene
T9 construct: recombinant, E. coli pET32b or pET28a, His-tagged, purified, putative transit peptide removed (mitochondrial enzyme)

TPS35 = molecular target: T10, TPS35 (Solanum lycopersicum, UniProt G5CV43); experiment: in vitro assay, GC-MS of products; conditions: product predominantly Z,Z-farnesol
T10 construct: recombinant, E. coli pET32b or pET28a, His-tagged, purified
T10 sequence (G5CV43 1-556): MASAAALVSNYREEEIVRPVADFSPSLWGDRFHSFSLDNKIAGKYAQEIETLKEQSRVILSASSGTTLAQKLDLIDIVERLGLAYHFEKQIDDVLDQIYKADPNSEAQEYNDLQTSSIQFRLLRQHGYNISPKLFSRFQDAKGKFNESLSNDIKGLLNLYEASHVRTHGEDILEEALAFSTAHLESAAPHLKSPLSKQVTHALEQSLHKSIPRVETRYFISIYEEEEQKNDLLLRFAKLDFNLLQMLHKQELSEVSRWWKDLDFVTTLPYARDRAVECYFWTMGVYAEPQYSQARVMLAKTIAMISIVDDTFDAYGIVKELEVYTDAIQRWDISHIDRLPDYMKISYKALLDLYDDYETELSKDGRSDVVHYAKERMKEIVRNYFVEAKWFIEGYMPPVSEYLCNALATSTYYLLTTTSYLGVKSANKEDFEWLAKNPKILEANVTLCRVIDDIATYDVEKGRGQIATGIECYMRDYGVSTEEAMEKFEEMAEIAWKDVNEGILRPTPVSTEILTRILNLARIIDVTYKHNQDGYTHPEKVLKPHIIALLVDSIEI

TPS25 = molecular target: T11, TPS25 (Solanum lycopersicum, UniProt G5CV49); experiment: in vitro assay, GC-MS of products; conditions: product mostly beta-ocimene
T11 construct: recombinant, E. coli pET32b or pET28a, His-tagged, purified
T11 sequence (G5CV49 1-576): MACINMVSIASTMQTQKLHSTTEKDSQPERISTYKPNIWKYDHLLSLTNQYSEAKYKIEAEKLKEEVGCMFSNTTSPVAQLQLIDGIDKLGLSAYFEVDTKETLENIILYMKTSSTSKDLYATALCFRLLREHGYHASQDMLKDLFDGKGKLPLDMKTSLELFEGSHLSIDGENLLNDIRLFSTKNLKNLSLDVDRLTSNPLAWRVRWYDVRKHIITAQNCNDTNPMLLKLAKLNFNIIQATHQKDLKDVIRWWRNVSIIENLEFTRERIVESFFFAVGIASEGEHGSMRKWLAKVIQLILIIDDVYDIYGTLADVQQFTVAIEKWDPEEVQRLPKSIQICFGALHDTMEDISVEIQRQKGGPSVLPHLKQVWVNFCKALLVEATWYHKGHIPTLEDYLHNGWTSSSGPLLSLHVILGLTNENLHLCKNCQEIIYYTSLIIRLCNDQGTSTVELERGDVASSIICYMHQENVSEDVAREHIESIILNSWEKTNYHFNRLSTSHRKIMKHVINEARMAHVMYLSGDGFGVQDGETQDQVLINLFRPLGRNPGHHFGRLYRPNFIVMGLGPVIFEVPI

T4 sequence (Q1A7S9 57-363): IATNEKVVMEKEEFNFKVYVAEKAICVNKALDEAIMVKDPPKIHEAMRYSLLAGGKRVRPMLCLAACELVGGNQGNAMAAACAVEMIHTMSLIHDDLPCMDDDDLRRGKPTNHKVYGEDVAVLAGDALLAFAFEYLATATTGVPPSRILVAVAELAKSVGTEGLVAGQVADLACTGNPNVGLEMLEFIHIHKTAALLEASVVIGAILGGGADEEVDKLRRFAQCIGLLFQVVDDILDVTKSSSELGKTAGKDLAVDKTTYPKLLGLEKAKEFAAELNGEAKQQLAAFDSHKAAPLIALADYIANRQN
T9 sequence (G5CV42 entry or part of it): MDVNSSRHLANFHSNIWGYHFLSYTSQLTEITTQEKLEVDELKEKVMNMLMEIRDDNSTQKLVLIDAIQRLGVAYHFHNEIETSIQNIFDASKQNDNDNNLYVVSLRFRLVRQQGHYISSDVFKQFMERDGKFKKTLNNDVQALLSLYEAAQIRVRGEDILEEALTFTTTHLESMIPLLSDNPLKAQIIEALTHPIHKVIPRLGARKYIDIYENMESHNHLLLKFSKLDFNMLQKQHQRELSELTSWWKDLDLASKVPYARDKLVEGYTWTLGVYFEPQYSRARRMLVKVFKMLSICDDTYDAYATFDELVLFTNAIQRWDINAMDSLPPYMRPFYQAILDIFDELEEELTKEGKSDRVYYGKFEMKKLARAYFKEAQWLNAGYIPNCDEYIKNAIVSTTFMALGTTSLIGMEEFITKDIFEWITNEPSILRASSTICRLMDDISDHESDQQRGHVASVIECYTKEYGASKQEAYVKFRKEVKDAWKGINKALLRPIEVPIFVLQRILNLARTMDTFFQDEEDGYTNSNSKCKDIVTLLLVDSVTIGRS
T5 sequence (Q1A7T0 60-365): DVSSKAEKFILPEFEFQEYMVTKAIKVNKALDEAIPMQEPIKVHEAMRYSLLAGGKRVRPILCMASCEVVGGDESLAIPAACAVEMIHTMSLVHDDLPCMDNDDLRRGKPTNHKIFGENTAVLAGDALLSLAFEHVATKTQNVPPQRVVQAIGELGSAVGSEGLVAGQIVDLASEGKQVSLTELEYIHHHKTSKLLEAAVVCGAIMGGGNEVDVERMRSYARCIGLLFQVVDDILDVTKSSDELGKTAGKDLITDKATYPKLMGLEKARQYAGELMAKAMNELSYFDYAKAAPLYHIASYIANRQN

With `CC(C)=CCC/C(C)=C/CC/C(C)=C/COP(=O)(O)OP(=O)(O)O` [E,E-FPP] the “in vitro assay, GC-MS of products” value (TPS52; product mostly E-nerolidol) was “catalysed the formation of mostly E-nerolidol from E,E-FPP”, the “in vitro assay, GC-MS of products” value (TPS27) was “TPS27 had activity only with E,E-FPP to form α-farnesene” and the “in vitro assay, GC-MS of products” value (TPS51; product mostly E-nerolidol) was “catalysed the formation of mostly E-nerolidol from E,E-FPP”.

`CC(C)=CCOP(=O)(O)OP(=O)(O)O` [DMAPP] was tested, and the “in vitro prenyltransferase assay, products hydrolysed, GC-MS” value (GGPPS2) was “affinity-purified His-tagged recombinant proteins were incubated with IPP and DMAPP”, the “in vitro prenyltransferase assay, products hydrolysed, GC-MS” value (GGPPS1) was “affinity-purified His-tagged recombinant proteins were incubated with IPP and DMAPP” and the “in vitro assay, headspace SPME GC-MS” value (TPS47) was “When tested in vitro, TPS47 catalysed the formation of isoprene from DMAPP”.

In the case of `CC(C)=CCC/C(C)=C\CC/C(C)=C\COP(=O)(O)OP(=O)(O)O` [Z,Z-FPP], the “in vitro assay, GC-MS of products” value (TPS52; several sesquiterpene products) was “α-bisabolene, β-bisabolene and Z-β-farnesene) from Z,Z-FPP”, the “in vitro assay, GC-MS of products” value (TPS33) was “When assayed with Z,Z-FPP, TPS33 made several sesquiterpenes” and the “in vitro assay, GC-MS of products” value (TPS28) was “TPS28 and TPS48 also catalysed the formation of a major sesquiterpene from Z,Z-FPP”. The “in vitro assay, GC-MS of products” value (TPS36) was “TPS36 only had activity using Z,Z-FPP and produced mostly cis-muurola-3,5-diene”, the “in vitro assay, GC-MS of products” value (TPS35) was “while TPS35 made predominantly Z,Z-farnesol” and the “in vitro assay, GC-MS of products” value (TPS51; several sesquiterpene products) was “α-bisabolene, β-bisabolene and Z-β-farnesene) from Z,Z-FPP”.

For `CC(C)=CCC/C(C)=C/COP(=O)(O)OP(=O)(O)O` [GPP], the “in vitro assay, GC-MS of products” value (TPS25) was “TPS25 had activity only with GPP as the substrate, producing mostly β-ocimene”.
